Measurements published in publication PMC11047177 (ESMO Open, 2024).

Tests used:
[1] = test system: selected locally advanced or metastatic solid tumors; test: Tumor response by RECIST v1.1; assay type: in vivo, human; conditions: for Duration of response (DoR): part 1
[2] = test system: non-small-cell lung cancer (NSCLC) cells; conditions: in vitro; cited from earlier work

## Cc1ncnc2c1ccn2[C@@H]1C[C@H](Oc2cc(C(F)F)c(F)c3c2CNCC3)[C@@H](O)[C@H]1O [PF-06939999]
[1]; part 1 + part 2, 3/54 patients
  Objective response rate: 6%
[1]; part 1 + part 2, 19 patients, response-assessable population (44 patients)
  Stable disease: 43.2%
[1]; part 1, 28 patients treated, two patients (HNSCC 2 mg b.i.d., NSCLC 4 mg b.i.d.)
  Confirmed PRs: 7%
[1]; confirmed responder with HNSCC, 2 mg b.i.d.
  Duration of response (DoR): 4 months
[1]; confirmed responder with NSCLC, 4 mg b.i.d.
  Duration of response (DoR): 5 months
[1]; part 2, 26 patients, 6 mg q.d., 8 patients
  Progressive disease: 31%
[1]; part 2, 26 patients, 6 mg q.d., 11 patients
  Disease control: 42%
[1]; part 2, 26 patients, 6 mg q.d., one patient with NSCLC
  Confirmed PR: 4%
[2]
  Anti-proliferative activity: demonstrated anti-proliferative activity
